Article PMC9695041, “The Anti-Breast Cancer Activity of Dihydroartemisinin-5-methylisatin Hybrids Tethered via Different Carbon Spacers” (Molecules, 2022)

What was measured:
[1] = MTT cytotoxicity assay, MCF-10A; conditions: human, MCF-10A normal breast cells
Experimental: (§1) The antiproliferative activity and cytotoxicity of DHA-5-methylisatin hybrids 6a–c and 7a–m against MCF-7, MDA-MB-231, MCF-7/ADR, and MDA-MB-231/ADR (Purchased from Procell) breast cancer cell lines as well as MCF-10A were assessed by 3-(4,5-dimethylthiazol-2-yl)-2,5-diphenyltetrazolium bromide (MTT) assay.
(§2) MCF-7, MDA-MB-231, MCF-7/ADR, and MDA-MB-231/ADR breast cancer cell lines (2 × 10^3) were plated in each well of a 96-well plate and were allowed to adhere and spread for 24 h. The dihydroartemisinin-5-methylisatin hybrids 6a–e and 7a–m were added to a final concentration of 100 µM, and the cells were cultured for 24 h at 37 °C. 3-(4,5-dimethyl-2-thiazolyl)-2,5-diphenyltetrazolium bromide (MTT) solution (10 µL) was added to each well, and the cultures were incubated for an additional 4 h. A further 100 µL of MTT solution was added and incubation continued overnight. The absorbance at 540 nm was determined in each well with a 96-well plate reader. The growth of the treated cells was compared with that of untreated cells.

[2] = system: MCF-7, MDA-MB-231, MCF-7/ADR, and MDA-MB-231/ADR breast cancer cell lines; assay: MTT antiproliferative assay, summary over the breast cancer cell line panel; assay type: cell-based; conditions: range over the four breast cancer cell lines; read-out: IC50 range across MCF-7, MDA-MB-231, MCF-7/ADR and MDA-MB-231/ADR
Experimental: as §1, §2

[3] = system: MDA-MB-231 breast cancer cell line; assay: MTT antiproliferative assay, MDA-MB-231; assay type: cell-based
Experimental: as §1, §2

[4] = system: MCF-7/ADR breast cancer cell line; assay: MTT antiproliferative assay, MCF-7/ADR; assay type: cell-based; conditions: Homo sapiens, NCI/ADR-RES, MCF-7/ADR (drug-resistant)
Experimental: as §1, §2

[5] = system: MCF-7 breast cancer cell line; assay: MTT antiproliferative assay, MCF-7; assay type: cell-based
Experimental: as §1, §2

[6] = system: MDA-MB-231/ADR breast cancer cell line; assay: MTT antiproliferative assay, MDA-MB-231/ADR; assay type: cell-based; conditions: Homo sapiens, MDA-MB-231/ADR (drug-resistant)
Experimental: as §1, §2

IC50 [2]: 15.3 to 20.1 µM | IC50 ([3]; Homo sapiens, MDA-MB-231, MTT assay): 15.3 µM | IC50 [4]: 20.1 µM | IC50 ([5]; Homo sapiens, MCF7, MCF-7, MTT assay): 19.4 µM | IC50 [6]: 18.8 µM
SMILES: Cc1ccc2c(c1)C(=NO)C(=O)N2CCOC1O[C@@H]2O[C@@]3(C)CC[C@H]4[C@H](C)CC[C@@H]([C@H]1C)[C@@]24OO3 (stereo partly drawn) [Hybrid 7a, 3-(Hydroxyimino)-5-methyl-1-(2-(((3R,5aS,6R,8aS,9R,12R,12aR)-3,6,9-trimethyldecahydro-12H-3,12-epoxy[1,2]dioxepino[4,3-i]isochromen-10-yl)oxy)ethyl)indolin-2-one]
IC50 at 24 h [1]: > 100 µM | SI2: selectivity index IC50(MCF-10A)/IC50(MDA-MB-231) ([3]; IC50(MCF-10A)/IC50(MDA-MB-231)): >6.53 | SI1: selectivity index IC50(MCF-10A)/IC50(MCF-7) ([5]; IC50(MCF-10A)/IC50(MCF-7)): >5.15
